From the supplement of paper PMC8612539
In brackets after ≈: the same amount, converted by molar mass.

Tested on: Escherichia coli
Test: minimum inhibitory concentration (MIC)
Procedure: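 Broth microdilution MIC (Sensititre BOPO7F bovine plate, CLSI methods) of 19 antimicrobials against field isolates of P. multocida, M. haemolytica, H. somni (deep nasopharyngeal swabs) and E. coli, Enterococcus spp. (rectal swabs) from weaned dairy heifers. Incubation 16-24 h at 35 C. MIC is the lowest concentration preventing visible growth. Values with <= or > lie at the tested range limits. Trimethoprim-sulfamethoxazole is given as the trimethoprim component of a 1:19 mixture.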

CCCNC[C@]1(O)[C@H](C)O[C@@H](O[C@H]2[C@H](C)[C@@H](O[C@@H]3O[C@H](C)C[C@H](N(C)C)[C@H]3O)[C@](C)(O)C[C@@H](C)CN[C@H](C)[C@@H](O)[C@](C)(O)[C@@H](CC)OC(=O)[C@@H]2C)C[C@@]1(C)OC [Tulathromycin]
Conditions | minimum inhibitory concentration [µg/mL]
isolate (source animal id): 8 | ≤ 8
isolate (source animal id): 9 | 16 (≈ 19.8 µM)
isolate (source animal id): 10 | 16 (≈ 19.8 µM)
isolate (source animal id): 11 | ≤ 8
isolate (source animal id): 12 | ≤ 8
isolate (source animal id): 13 | ≤ 8
isolate (source animal id): 14 | ≤ 8
isolate (source animal id): 15 | ≤ 8
isolate (source animal id): 16 | ≤ 8
isolate (source animal id): 98 | ≤ 8
isolate (source animal id): 99 | ≤ 8
isolate (source animal id): 100 | ≤ 8
isolate (source animal id): 101 | ≤ 8
isolate (source animal id): 102 | ≤ 8
isolate (source animal id): 103 | ≤ 8
isolate (source animal id): 104 | 16 (≈ 19.8 µM)
isolate (source animal id): 105 | ≤ 8
isolate (source animal id): 106 | 16 (≈ 19.8 µM)
isolate (source animal id): 107 | 16 (≈ 19.8 µM)
isolate (source animal id): 108 | 16 (≈ 19.8 µM)
isolate (source animal id): 109 | ≤ 8
isolate (source animal id): 110 | ≤ 8
isolate (source animal id): 111 | ≤ 8
isolate (source animal id): 112 | ≤ 8
isolate (source animal id): 113 | ≤ 8
isolate (source animal id): 114 | ≤ 8
isolate (source animal id): 115 | 64 (≈ 79.4 µM)
isolate (source animal id): 116 | ≤ 8
isolate (source animal id): 117 | 16 (≈ 19.8 µM)
isolate (source animal id): 118 | ≤ 8
isolate (source animal id): 119 | 32 (≈ 39.7 µM)
isolate (source animal id): 120 | ≤ 8
isolate (source animal id): 121 | ≤ 8
isolate (source animal id): 122 | ≤ 8
isolate (source animal id): 123 | ≤ 8
isolate (source animal id): 124 | 16 (≈ 19.8 µM)
isolate (source animal id): 125 | ≤ 8
isolate (source animal id): 126 | 16 (≈ 19.8 µM)
isolate (source animal id): 127 | 16 (≈ 19.8 µM)
isolate (source animal id): 128 | ≤ 8
isolate (source animal id): 129 | ≤ 8
isolate (source animal id): 130 | ≤ 8
isolate (source animal id): 131 | ≤ 8
isolate (source animal id): 132 | ≤ 8
isolate (source animal id): 133 | ≤ 8
isolate (source animal id): 134 | ≤ 8
isolate (source animal id): 135 | ≤ 8
isolate (source animal id): 136 | ≤ 8
isolate (source animal id): 137 | ≤ 8
isolate (source animal id): 138 | 32 (≈ 39.7 µM)
isolate (source animal id): 139 | ≤ 8
isolate (source animal id): 140 | ≤ 8
isolate (source animal id): 141 | ≤ 8
isolate (source animal id): 142 | ≤ 8
isolate (source animal id): 143 | 16 (≈ 19.8 µM)
isolate (source animal id): 144 | 16 (≈ 19.8 µM)
isolate (source animal id): 145 | 16 (≈ 19.8 µM)
isolate (source animal id): 146 | 16 (≈ 19.8 µM)
isolate (source animal id): 147 | ≤ 8
isolate (source animal id): 148 | ≤ 8
isolate (source animal id): 149 | ≤ 8
isolate (source animal id): 150 | ≤ 8
isolate (source animal id): 151 | ≤ 8
isolate (source animal id): 152 | ≤ 8
isolate (source animal id): 153 | ≤ 8
isolate (source animal id): 154 | ≤ 8
isolate (source animal id): 155 | ≤ 8
isolate (source animal id): 156 | ≤ 8
isolate (source animal id): 157 | ≤ 8
isolate (source animal id): 158 | ≤ 8
isolate (source animal id): 159 | ≤ 8
isolate (source animal id): 160 | ≤ 8
isolate (source animal id): 161 | ≤ 8
isolate (source animal id): 162 | ≤ 8
isolate (source animal id): 163 | 16 (≈ 19.8 µM)
isolate (source animal id): 164 | ≤ 8
isolate (source animal id): 165 | ≤ 8
isolate (source animal id): 166 | ≤ 8
isolate (source animal id): 167 | 16 (≈ 19.8 µM)
isolate (source animal id): 168 | ≤ 8
isolate (source animal id): 169 | ≤ 8
isolate (source animal id): 170 | ≤ 8
isolate (source animal id): 171 | ≤ 8
isolate (source animal id): 172 | ≤ 8
isolate (source animal id): 173 | ≤ 8
isolate (source animal id): 174 | ≤ 8
isolate (source animal id): 175 | 16 (≈ 19.8 µM)
isolate (source animal id): 176 | ≤ 8
isolate (source animal id): 177 | ≤ 8
isolate (source animal id): 178 | ≤ 8
isolate (source animal id): 179 | ≤ 8
isolate (source animal id): 180 | ≤ 8
isolate (source animal id): 181 | ≤ 8
isolate (source animal id): 182 | 16 (≈ 19.8 µM)
isolate (source animal id): 183 | ≤ 8
isolate (source animal id): 184 | ≤ 8
isolate (source animal id): 185 | 16 (≈ 19.8 µM)
isolate (source animal id): 186 | ≤ 8
isolate (source animal id): 187 | ≤ 8
isolate (source animal id): 188 | ≤ 8

CC[C@H]1OC(=O)C[C@@H](O)[C@H](C)[C@@H](O[C@@H]2O[C@H](C)[C@@H](O[C@H]3C[C@@](C)(O)[C@@H](O)[C@H](C)O3)[C@H](N(C)C)[C@H]2O)[C@@H](CC=O)C[C@@H](C)C(=O)/C=C/C(C)=C/[C@@H]1CO[C@@H]1O[C@H](C)[C@@H](O)[C@@H](OC)[C@H]1OC [Tylosin]
Conditions | minimum inhibitory concentration [µg/mL]
isolate (source animal id): 8 | > 32
isolate (source animal id): 9 | > 32
isolate (source animal id): 10 | > 32
isolate (source animal id): 11 | > 32
isolate (source animal id): 12 | > 32
isolate (source animal id): 13 | > 32
isolate (source animal id): 14 | > 32
isolate (source animal id): 15 | > 32
isolate (source animal id): 16 | > 32
isolate (source animal id): 98 | > 32
isolate (source animal id): 99 | > 32
isolate (source animal id): 100 | > 32
isolate (source animal id): 101 | > 32
isolate (source animal id): 102 | > 32
isolate (source animal id): 103 | > 32
isolate (source animal id): 104 | > 32
isolate (source animal id): 105 | > 32
isolate (source animal id): 106 | > 32
isolate (source animal id): 107 | > 32
isolate (source animal id): 108 | > 32
isolate (source animal id): 109 | > 32
isolate (source animal id): 110 | > 32
isolate (source animal id): 111 | > 32
isolate (source animal id): 112 | > 32
isolate (source animal id): 113 | > 32
isolate (source animal id): 114 | > 32
isolate (source animal id): 115 | > 32
isolate (source animal id): 116 | > 32
isolate (source animal id): 117 | > 32
isolate (source animal id): 118 | > 32
isolate (source animal id): 119 | > 32
isolate (source animal id): 120 | > 32
isolate (source animal id): 121 | > 32
isolate (source animal id): 122 | > 32
isolate (source animal id): 123 | > 32
isolate (source animal id): 124 | > 32
isolate (source animal id): 125 | > 32
isolate (source animal id): 126 | > 32
isolate (source animal id): 127 | > 32
isolate (source animal id): 128 | > 32
isolate (source animal id): 129 | > 32
isolate (source animal id): 130 | > 32
isolate (source animal id): 131 | > 32
isolate (source animal id): 132 | > 32
isolate (source animal id): 133 | > 32
isolate (source animal id): 134 | > 32
isolate (source animal id): 135 | > 32
isolate (source animal id): 136 | > 32
isolate (source animal id): 137 | > 32
isolate (source animal id): 138 | > 32
isolate (source animal id): 139 | > 32
isolate (source animal id): 140 | > 32
isolate (source animal id): 141 | > 32
isolate (source animal id): 142 | > 32
isolate (source animal id): 143 | > 32
isolate (source animal id): 144 | > 32
isolate (source animal id): 145 | > 32
isolate (source animal id): 146 | > 32
isolate (source animal id): 147 | > 32
isolate (source animal id): 148 | > 32
isolate (source animal id): 149 | > 32
isolate (source animal id): 150 | > 32
isolate (source animal id): 151 | > 32
isolate (source animal id): 152 | > 32
isolate (source animal id): 153 | > 32
isolate (source animal id): 154 | > 32
isolate (source animal id): 155 | > 32
isolate (source animal id): 156 | > 32
isolate (source animal id): 157 | > 32
isolate (source animal id): 158 | > 32
isolate (source animal id): 159 | > 32
isolate (source animal id): 160 | > 32
isolate (source animal id): 161 | > 32
isolate (source animal id): 162 | > 32
isolate (source animal id): 163 | > 32
isolate (source animal id): 164 | > 32
isolate (source animal id): 165 | > 32
isolate (source animal id): 166 | > 32
isolate (source animal id): 167 | > 32
isolate (source animal id): 168 | > 32
isolate (source animal id): 169 | > 32
isolate (source animal id): 170 | > 32
isolate (source animal id): 171 | > 32
isolate (source animal id): 172 | > 32
isolate (source animal id): 173 | > 32
isolate (source animal id): 174 | > 32
isolate (source animal id): 175 | > 32
isolate (source animal id): 176 | > 32
isolate (source animal id): 177 | > 32
isolate (source animal id): 178 | > 32
isolate (source animal id): 179 | > 32
isolate (source animal id): 180 | > 32
isolate (source animal id): 181 | > 32
isolate (source animal id): 182 | > 32
isolate (source animal id): 183 | > 32
isolate (source animal id): 184 | > 32
isolate (source animal id): 185 | > 32
isolate (source animal id): 186 | > 32
isolate (source animal id): 187 | > 32
isolate (source animal id): 188 | > 32
